Measurements from patent publication US8093265B2, “Bicycloheteroaryl compounds as P2X7 modulators and uses thereof” (Renovis, Inc., priority 2007, dated 2012).
pIC50: −log10 of the molar value.

Key:
P2X7 receptor = target: T1, P2X7 receptor (Homo sapiens, UniProt Q99572); assay: IL-1β release assay in differentiated THP-1 cells (Example 9); format: cell-based; conditions: THP-1 cells differentiated with LPS and IFN-γ; 30 min pretreatment; BzATP 250 uM; IL-1β by ELISA
T1 construct: host or cells: THP-1 cells differentiated with LPS and IFN-γ
T1 sequence (Q99572 1-595): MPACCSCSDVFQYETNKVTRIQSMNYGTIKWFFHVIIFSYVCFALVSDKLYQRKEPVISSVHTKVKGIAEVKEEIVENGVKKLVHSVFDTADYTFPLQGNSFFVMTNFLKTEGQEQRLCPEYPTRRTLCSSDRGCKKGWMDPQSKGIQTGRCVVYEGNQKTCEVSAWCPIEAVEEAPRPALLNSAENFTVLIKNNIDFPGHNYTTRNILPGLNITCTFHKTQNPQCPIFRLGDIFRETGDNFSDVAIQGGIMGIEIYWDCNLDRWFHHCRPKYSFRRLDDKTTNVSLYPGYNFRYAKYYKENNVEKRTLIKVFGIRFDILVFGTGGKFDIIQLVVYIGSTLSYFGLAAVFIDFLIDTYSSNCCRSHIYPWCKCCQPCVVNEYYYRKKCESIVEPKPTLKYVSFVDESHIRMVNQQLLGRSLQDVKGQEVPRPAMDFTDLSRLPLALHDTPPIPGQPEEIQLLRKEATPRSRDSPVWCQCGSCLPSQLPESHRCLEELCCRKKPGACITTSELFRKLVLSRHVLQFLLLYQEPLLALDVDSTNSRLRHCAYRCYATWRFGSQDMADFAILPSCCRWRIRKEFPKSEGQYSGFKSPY
Description: THP-1 cells (ATCC Cat #285-IF-100) are plated in 96 well plates at a concentration of 200,000 cells per well and allowed to differentiate in RPMI-1640 media (ATCC Cat #30-2001) containing 10% FBS, 100 IU/mL penicillin, 100 ug/mL streptomycin, 100 ng/mL LPS and 100 ng/mL IFN-γ for 16 hours. Following differentiation, the cells are treated for an additional 2 hours in RPMI-1640 media containing 100 IU/mL penicillin, 100 ug/mL streptomycin and fresh LPS at 100 ng/mL. The cells are then pretreated for 30 minutes with the compound of interest at the appropriate concentration in RPMI media containing 100 IU/mL penicillin, 100 ug/mL streptomycin. Following the pretreatment 2′,3′-O-(4-benzoylbenzoyl)-adenosine 5′-triphosphate (Sigma Aldrich Cat # B6396) is added to a final concentration of 250 uM, and the cells are incubated for an additional 45 minutes. 30 uL of cell supernatant is then collected and IL-1β levels are determined via ELISA (R&D systems Cat. # HSLB50) according to manufacturer's recommendations using a Tecan Safire plate reader. Background adjusted IL-1β levels of drug treated and non-treated cells are used to calculate the percent inhibition.
The following compounds have been or can be prepared according to the synthetic methods described herein for example, methods A-AA1. The compounds set forth in Table 1 were tested for activity in a cellular model as described herein. Specifically, cells were pretreated with differing amounts of the compound under test and released IL-1β determined as in Example 9, above. Measurements were made and IC50 values, presented in Table 1, below, were determined by fitting the data to a four parameter logistic equation using GraphPad Prism software (GraphPad Software, Inc). The equation may be expressed by the following formula: Y=Bottom+(Top−Bottom)/(1+10^((Log EC50−X)*HillSlope)) where X is the logarithm of concentration, Y is the response and Y starts at Bottom and goes to Top with a sigmoid shape.

[1] = Half-life in human liver microsomes (HLM); format: in vitro ADME; conditions: pH 7.4; human liver microsomes 0.78 mg/mL, 1 μM compound, NADPH, 37° C.
Description: Half-Life in Human Liver Microsomes (HLM)
Test compounds (1 μM) are incubated with 3.3 mM MgCl2 and 0.78 mg/mL HLM (HL101) in 100 mM potassium phosphate buffer (pH 7.4) at 37° C. on the 96-deep well plate. The reaction mixture is split into two groups, a non-P450 and a P450 group. NADPH is only added to the reaction mixture of the P450 group. An aliquot of samples of P450 group is collected at 0, 10, 30, and 60 min time point, where 0 min time point indicated the time when NADPH is added into the reaction mixture of P450 group. […] Collected aliquots are extracted with acetonitrile solution containing an internal standard. […] The compound concentration in supernatant is measured by LC/MS/MS system.
The half-life value is obtained by plotting the natural logarithm of the peak area ratio of compounds/internal standard versus time. The slope of the line of best fit through the points yields the rate of metabolism (k). This is converted to a half-life value using following equations: Half-life=ln 2/k

SMILES | pIC50 (P2X7 receptor) | half-life at 1 μM [1]
C[C@H](CO)n1ccc2c(C(=O)NCc3ccc(Cl)c(F)c3)c(Cl)ccc2c1=O [Compound 45, 6-Chloro-2-((R)-2-hydroxy-1-methyl-ethyl)-1-oxo-1,2-dihydro-isoquinoline-5-carboxylic acid 4-chloro-3-fluoro-benzylamide] | 7.89 | 1.6 h
C[C@H](CO)n1ccc2c(C(=O)NCc3cccc(C(F)(F)F)c3)c(Cl)ccc2c1=O [Compound 44, 6-Chloro-2-((R)-2-hydroxy-1-methyl-ethyl)-1-oxo-1,2-dihydro-isoquinoline-5-carboxylic acid 3-trifluoromethyl-benzylamide] | 8.00 | 1.1 h
C[C@H](CO)n1ccc2c(C(=O)NCC3(O)CCCCCC3)c(Cl)ccc2c1=O [Compound 47, 6-Chloro-2-((R)-2-hydroxy-1-methyl-ethyl)-1-oxo-1,2-dihydro-isoquinoline-5-carboxylic acid (1-hydroxy-cycloheptylmethyl)-amide] | 9.10 | 0.4 h
Cc1ccc2c(=O)n([C@H](C)CO)ccc2c1NC(=O)CC1CCCCCC1 [Compound 32, 2-Cycloheptyl-N-[2-((R)-2-hydroxy-1-methyl-ethyl)-6-methyl-1-oxo-1,2-dihydro-isoquinolin-5-yl]-acetamide] | 8.05 | 
COc1ccc2c(=O)n([C@H](C)CO)ccc2c1NC(=O)Cc1ccc(C(F)(F)F)c(F)c1 [Compound 9, 2-(3-Fluoro-4-trifluoromethyl-phenyl)-N-[2-((R)-2-hydroxy-1-methyl-ethyl)-6-methoxy-1-oxo-1,2-dihydro-isoquinolin-5-yl]-acetamide] | 6.36 | 
CNC[C@@H](C)n1ccc2c(NC(=O)Cc3ccc(C(F)(F)F)c(F)c3)c(C)ccc2c1=O [Compound 59, 2-(3-Fluoro-4-trifluoromethyl-phenyl)-N-[6-methyl-2-((R)-1-methyl-2-methylamino-ethyl)-1-oxo-1,2-dihydro-isoquinolin-5-yl]-acetamide] | 8.70 | 
Cc1ccc2c(=O)n([C@H](C)CN3CC[C@H](N)C3)ccc2c1NC(=O)Cc1ccc(C(F)(F)F)c(F)c1 [Compound 66] | 8.30 | 
Cc1ccc2c(=O)n([C@H](C)CN3CCNCC3)ccc2c1NC(=O)Cc1ccc(C(F)(F)F)c(F)c1 [Compound 60, 2-(3-Fluoro-4-trifluoromethyl-phenyl)-N-[6-methyl-2-((R)-1-methyl-2-piperazin-1-yl-ethyl)-1-oxo-1,2-dihydro-isoquinolin-5-yl]-acetamide] | 9.00 | 
C[C@H](CO)n1ccc2c(C(=O)NCc3ccc(C(F)(F)F)nc3)c(Cl)ccc2c1=O [Compound 43, 6-Chloro-2-((R)-2-hydroxy-1-methyl-ethyl)-1-oxo-1,2-dihydro-isoquinoline-5-carboxylic acid (6-trifluoromethyl-pyridin-3-ylmethyl)-amide] | 6.51 | 
C[C@H](CO)n1ccc2c(C(=O)NCC3(O)CCCC(C)(C)C3)c(Cl)ccc2c1=O (stereo partly drawn) [Compound 55, 6-Chloro-2-((R)-2-hydroxy-1-methyl-ethyl)-1-oxo-1,2-dihydro-isoquinoline-5-carboxylic acid(1-hydroxy-3,3-dimethyl-cyclohexylmethyl)-amide] | 9.00 | 
Cc1ccc2c(=O)n([C@H](C)CO)ccc2c1NC(=O)Cc1cccc(C(F)(F)F)c1 [Compound 35, N-[2-((R)-2-Hydroxy-1-methyl-ethyl)-6-methyl-1-oxo-1,2-dihydro-isoquinolin-5-yl]-2-(3-trifluoromethyl-phenyl)-acetamide] | 8.70 | 
Cc1ccc2c(=O)n([C@H](C)CO)ccc2c1NC(=O)CC12CC3CC(CC(C3)C1)C2 [Compound 31, 2-Adamantan-1-yl-N-[2-((R)-2-hydroxy-1-methyl-ethyl)-6-methyl-1-oxo-1,2-dihydro-isoquinolin-5-yl]-acetamide] | 8.30 | 
C[C@H](CO)n1ccc2c(C(=O)NCC3CCCCCC3)c(Cl)ccc2c1=O [Compound 48, 6-Chloro-2-((R)-2-hydroxy-1-methyl-ethyl)-1-oxo-1,2-dihydro-isoquinoline-5-carboxylic acid cycloheptylmethyl-amide] | 9.70 | 
COc1ccc2c(=O)n([C@H](C)C(N)=O)ccc2c1NC(=O)Cc1ccc(C(F)(F)F)cc1 [Compound 7, (R)-2-{6-Methoxy-1-oxo-5-[2-(4-trifluoromethyl-phenyl)-acetylamino]-1H-isoquinolin-2-yl}-propionamide] | 7.32 | 
O=C(Cc1cccc(C(F)(F)F)c1F)Nc1c(Cl)ccc2c(=O)n(CCO)ccc12 [Compound 20, N-[6-Chloro-2-(2-hydroxy-ethyl)-1-oxo-1,2-dihydro-isoquinolin-5-yl]-2-(2-fluoro-3-trifluoromethyl-phenyl)-acetamide] | 7.20 | 
C[C@H](CO)n1ccc2c(C(=O)NCc3ccccc3C(F)(F)F)c(Cl)ccc2c1=O [Compound 46, 6-Chloro-2-((R)-2-hydroxy-1-methyl-ethyl)-1-oxo-1,2-dihydro-isoquinoline-5-carboxylic acid 2-trifluoromethyl-benzylamide] | 6.30 | 
C[C@H](CO)n1ccc2c(NC(=O)CC3CCCCCC3)c(Cl)ccc2c1=O [Compound 36, N-[6-Chloro-2-((R)-2-hydroxy-1-methyl-ethyl)-1-oxo-1,2-dihydro-isoquinolin-5-yl]-2-cycloheptyl-acetamide] | 8.40 | 
Cc1ccc2c(=O)n([C@H](C)CO)ccc2c1C(=O)NCC1(O)CCCCCC1 [Compound 52, 2-((R)-2-Hydroxy-1-methyl-ethyl)-6-methyl-1-oxo-1,2-dihydro-isoquinoline-5-carboxylic acid (1-hydroxy-cycloheptylmethyl)-amide] | 8.40 | 
Cc1ccc2c(=O)n([C@H](C)CO)ccc2c1C(=O)NCc1ccc(Cl)c(F)c1 [Compound 50, 2-((R)-2-Hydroxy-1-methyl-ethyl)-6-methyl-1-oxo-1,2-dihydro-isoquinoline-5-carboxylic acid 4-chloro-3-fluoro-benzylamide] | 8.52 | 
Cc1ccc2c(=O)n([C@H](C)CN)ccc2c1NC(=O)Cc1ccc(C(F)(F)F)c(F)c1 [Compound 58, N-[2-((R)-2-Amino-1-methyl-ethyl)-6-methyl-1-oxo-1,2-dihydro-isoquinolin-5-yl]-2-(3-fluoro-4-trifluoromethyl-phenyl)-acetamide] | 11.00 | 
C[C@H](CO)n1ccc2c(C(=O)NCC3(O)CC4CCC3C4)c(Cl)ccc2c1=O (stereo partly drawn) [Compound 53, 6-Chloro-2-((R)-2-hydroxy-1-methyl-ethyl)-1-oxo-1,2-dihydro-isoquinoline-5-carboxylic acid (2-hydroxy-bicyclo[2.2.1]hept-2-ylmethyl)-amide] | 6.27 | 
Cc1ccc2c(=O)n(CCO)ccc2c1NC(=O)Cc1cccc(C(F)(F)F)c1F [Compound 24, 2-(2-Fluoro-3-trifluoromethyl-phenyl)-N-[2-(2-hydroxy-ethyl)-6-methyl-1-oxo-1,2-dihydro-isoquinolin-5-yl]-acetamide] | 7.19 | 
Cc1ccc2c(=O)n([C@@H](C)CO)ccc2c1NC(=O)Cc1ccc(C(F)(F)F)c(F)c1 [Compound 33, (S)-2-(3-fluoro-4-(trifluoromethyl)phenyl)-N-(2-(1-hydroxypropan-2-yl)-6-methyl-1-oxo-1,2-dihydroisoquinolin-5-yl)acetamide] | 7.28 | 
Cc1ccc2c(=O)n([C@H](C)CO)ccc2c1NC(=O)CC1(O)CCCCCC1 [Compound 37, 2-(1-Hydroxy-cycloheptyl)-N-[2-((R)-2-hydroxy-1-methyl-ethyl)-6-methyl-1-oxo-1,2-dihydroisoquinolin-5-yl]-acetamide] | 7.38 | 
